Reference: US6069167A, “Use of antioxidant agents to treat cholestatic liver disease” (priority 1997, dated 2000)

How the values were obtained:
Format in all cases: in vivo, male Sprague-Dawley rats
[1] = system: TCDC hepatic toxicity; conditions: rat, in vivo
Description: Young adult male Sprague-Dawley rats (150-180 gram weight) purchased from Sasco, Inc. (Omaha, Nebr.) were fed Purina Lab Chow (Ralston Purina Co., Chicago, Ill.) ad libitum for 2-3 weeks and housed in polyethylene cages with stainless steel tops on a 12-hour light-dark cycle. All rats received humane care in compliance with the guidelines of the Animal Use in Research Committee of the University of Colorado Health Sciences Center. […] TCDC is a conjugate of the bile acid most implicated in cholestatic liver injury9,11,12. TCDC was solubilized in 5% dextrose, 10% BSA, and 0.45% normal saline. TCDC was administered while rats were under light methoxyflurane anesthesia as an intravenous bolus of the desired dose in 1 to 2 minutes through the tail vein. TCDC dosing was performed between 7 and 9 am. […] Rats were divided into two treatment groups. One group was pretreated with parenteral Vitamin E (all-rac-alpha tocopherol, […], Hoffmann-LaRoche,Nutley, N.J.). The other group was not pretreated. These rats then received either vehicle or TCDC (10 μmol/[…]) by tail vein injection (as described in Example 1). […] All i.p. injections were administered under light methoxyflurane anesthesia. Following the vitamin E or saline injections, rats were randomly assigned to receive a tail vein bolus injection of either TCDC or vehicle. Rats were sacrificed four hours later and serum was analyzed for AST, ALT, total bilirubin and alkaline phosphatase. […] The serum alpha tocopherol:total lipids ratio (mg/gm) was calculated as an additional index of vitamin E status^41.

[2] = system: hepatic toxicity (liver); experiment: Dose response of intravenous TCDC and hepatic toxicity (serum AST, ALT, bilirubin, alkaline phosphatase); conditions: for Serum ALT / Serum AST: mean ± SEM, n = 4
Description: (§1) Young adult male Sprague-Dawley rats (150-180 gram weight) purchased from Sasco, Inc. (Omaha, Nebr.) were fed Purina Lab Chow (Ralston Purina Co., Chicago, Ill.) ad libitum for 2-3 weeks and housed in polyethylene cages with stainless steel tops on a 12-hour light-dark cycle. All rats received humane care in compliance with the guidelines of the Animal Use in Research Committee of the University of Colorado Health Sciences Center. Rats were then randomly assigned (4-5 per group) to receive 0 (vehicle only), 5, 10, or 20 μmol of taurochenodeoxycholic acid (TCDC)/100 gram body weight. TCDC is a conjugate of the bile acid most implicated in cholestatic liver injury9,11,12. TCDC was solubilized in 5% dextrose, 10% BSA, and 0.45% normal saline. TCDC was administered while rats were under light methoxyflurane anesthesia as an intravenous bolus of the desired dose in 1 to 2 minutes through the tail vein. TCDC dosing was performed between 7 and 9 am. Rats recovered from the injection uneventfully and blood was obtained at 0, 4, 8, 12 and 24 hours after the injection for determination of AST, ALT total bilirubin and alkaline phosphatase by an automated chemical analyzer (Hitachi 747 Chemical Analyzer).

[3] = Serum bile acid concentrations four hours after intravenous TCDC by GC-MS
Description: as §1
Because serum AST and ALT concentrations peaked at 4 hours, further evaluation of liver injury was performed at that time point Total concentrations (conjugated+free bile acids) of individual bile acids were measured in serum obtained at 4 hours by gas chromatography-mass spectroscopy (GC-MS), as previously described^30. Briefly, after serum samples were extracted with the addition of the internal standard 7-alpha, 12-alpha, dihydroxy-5 beta cholanic acid, trimethylsilyl esterification was performed. Individual bile acids were then quantified by GC or GC-MS using a Hewlett-Packard 5790 flame ionization detector equipped with a 30 meter DB-1 capillary column with internal diameter of 0.25 mm and a film thickness of 0.25 micrometers (J & W Scientific, Folsom, Calif.). For GC-MS measurements, a Hewlett-Packard 5970-A mass selective detector operating in selective ion monitoring mode was used. Results were expressed as μmol/L for each individual bile acid.

[4] = i.v. bolus TCDC in rats, data not shown
[5] = i.v. bolus TCDC in rats, dose-dependent
[6] = 4 h after i.v. TCDC 10 μmol/100 gram, mean ± SEM, n = 5, P < 0.05 versus vehicle
[7] = 4 h after i.v. TCDC 10 μmol/100 gram, mean ± SEM, n = 5, conjugates plus unconjugates

With `C[C@H](CCC(=O)NCCS(=O)(=O)O)[C@H]1CC[C@H]2[C@@H]3[C@H](O)C[C@@H]4C[C@H](O)CC[C@]4(C)[C@H]3CC[C@]12C` [TCDC, taurochenodeoxycholic acid] the ALT [1] was 1111 ± 213 IU/L, the AST [1] was 2472 ± 505 IU/L and the Bilirubin [1] was 0.4 ± 0.1 mg/dL. For the same molecule, the “Serum ALT” value ([2]; TCDC dose 5 i.v., 0 h) was 52 ± 6 IU/L, the “Serum AST” value ([2]; TCDC dose 5 i.v., 0 h) was 73 ± 9 IU/L and the “Serum ALT” value ([2]; TCDC dose 5 i.v., 4 h) was 92 ± 23 IU/L. The “Serum AST” value ([2]; TCDC dose 5 i.v., 4 h) was 121 ± 24 IU/L, the “Serum ALT” value ([2]; TCDC dose 5 i.v., 8 h) was 88 ± 12 IU/L and the “Serum AST” value ([2]; TCDC dose 5 i.v., 8 h) was 110 ± 12 IU/L. The “Serum ALT” value ([2]; TCDC dose 5 i.v., 12 h) was 70 ± 7 IU/L, the “Serum AST” value ([2]; TCDC dose 5 i.v., 12 h) was 105 ± 12 IU/L and the “Serum ALT” value ([2]; TCDC dose 5 i.v., 24 h) was 72 ± 7 IU/L. For the same molecule, the “Serum AST” value ([2]; TCDC dose 5 i.v., 24 h) was 89 ± 3.5 IU/L, the “Serum ALT” value ([2]; TCDC dose 10 i.v., 0 h) was 53 ± 3 IU/L and the “Serum AST” value ([2]; TCDC dose 10 i.v., 0 h) was 92 ± 8 IU/L. For the same molecule, the “Serum ALT” value ([2]; TCDC dose 10 i.v., 4 h) was 1855 ± 701 IU/L, the “Serum AST” value ([2]; TCDC dose 10 i.v., 4 h) was 3679 ± 1105 IU/L and the “Serum ALT” value ([2]; TCDC dose 10 i.v., 8 h) was 1963 ± 701 IU/L. For the same molecule, the “Serum AST” value ([2]; TCDC dose 10 i.v., 8 h) was 2233 ± 1906 IU/L, the “Serum ALT” value ([2]; TCDC dose 10 i.v., 12 h) was 492 ± 291 IU/L and the “Serum AST” value ([2]; TCDC dose 10 i.v., 12 h) was 605 ± 249 IU/L. The “Serum ALT” value ([2]; TCDC dose 10 i.v., 24 h) was 198 ± 82 IU/L, the “Serum AST” value ([2]; TCDC dose 10 i.v., 24 h) was 328 ± 82 IU/L and the “Serum ALT” value ([2]; TCDC dose 20 i.v., 0 h) was 64 ± 9 IU/L. The “Serum AST” value ([2]; TCDC dose 20 i.v., 0 h) was 70 ± 6 IU/L, the “Serum ALT” value ([2]; TCDC dose 20 i.v., 4 h) was 1712 ± 554 IU/L and the “Serum AST” value ([2]; TCDC dose 20 i.v., 4 h) was 1456 ± 748 IU/L. For the same molecule, the “Serum ALT” value ([2]; TCDC dose 20 i.v., 8 h) was 1238 ± 257 IU/L, the “Serum AST” value ([2]; TCDC dose 20 i.v., 8 h) was 2057 ± 939 IU/L and the “Serum ALT” value ([2]; TCDC dose 20 i.v., 12 h) was 851 ± 167 IU/L. The “Serum AST” value ([2]; TCDC dose 20 i.v., 12 h) was 1282 ± 375 IU/L, the “Serum ALT” value ([2]; TCDC dose 20 i.v., 24 h) was 362 ± 75 IU/L and the “Serum AST” value ([2]; TCDC dose 20 i.v., 24 h) was 399 ± 41 IU/L. For the same molecule, the “Time of peak serum AST and ALT after injection” value ([2]; i.v. bolus TCDC in rats) was 4 h, the “Serum alkaline phosphatase, change” value [2, 4] was “no significant changes” and the “Total serum bilirubin, change” value [2, 4] was “no significant changes”. For the same molecule, the “Serum ALT concentration, change” value [2, 5] was “significant rise”, the “Serum AST concentration, change” value [2, 5] was “significant rise” and the “Serum individual bile acids, change versus vehicle” value ([3]; 4 h after i.v. TCDC 10 μmol/100 gram) was “significant increases in most bile acids”. For the same molecule, the “Serum alpha-muricholic acid concentration” value [3, 6] was 77.4 ± 15.9 µmol/L, the “Serum beta-muricholic acid concentration” value [3, 6] was 12.4 ± 3.3 µmol/L and the “Serum cholic acid concentration” value [3, 6] was 134.8 ± 30.2 µmol/L. For the same molecule, the “Serum total bile acids concentration” value [3, 6] was 277.8 ± 49.0 µmol/L, the “Serum deoxycholic acid concentration” value [3, 7] was 4.8 ± 1.2 µmol/L and the “Serum lithocholic acid concentration” value [3, 7] was 0.6 ± 0.2 µmol/L. For the same molecule, the “Serum ursodeoxycholic acid concentration” value [3, 7] was 4.4 ± 0.4 µmol/L, the “CDC concentrations, change” value ([3]; in vivo model, TCDC) was “elevated to a similar extent as the other bile acids” and the “Lithocholate conjugates, change” value ([3]; in vivo model, TCDC) was “lack of substantial elevation”.
